# Results published in patent US20210038628A1, “NANOPARTICLE COMPOSITIONS” (JANUARY THERAPEUTICS, INC., priority 2018, published 2021).
# Where a name gives a salt, the structure may show the parent alone.
# Test system: BxPC-3 (pancreatic adenocarcinoma) cell line
# Assay: Cellular proliferation assay in BxPC-3 cells (Cell-Titer Glo)
# Assay type: cell-based
# Settings: Homo sapiens, 120 hours incubation, Cell-Titer Glo luminescence
# Description: Compounds are tested for their ability to impair cancer cell proliferation and/or induce cell death. For cellular proliferation studies, cultured cells are treated with the test compound for 24-120 hours. After compound treatment, cell proliferation is assessed by using methods including, but not limited to, Cell-Titer-Glo® (Promega), Alamar Blue, LIVE/DEAD® (ThermoFisher), BrdU incorporation, and live-cell imaging. The cancer lines used include, but are not limited to BxPC-3 (pancreatic cancer). Gemcitabine Hydrochloride serves as a control for activity.
# BxPC-3 (pancreatic adenocarcinoma) cell line was purchased from the American Type Culture Collection (Catalog #CRL-1687) and grown in RPMI-1640 medium (e.g. Corning #10-040-CV) with 10% Heat Inactivated Fetal Calf Serum at 37° C. and 5% CO2 (as recommended by the ATCC).
# Cultures were grown in […] plates to 80% confluence, and cells were trypsinized to a single-cell suspension. Cells were then resuspended in growth medium to a density of […]. They were then plated into 96-well assay plates (Corning #3917) in a volume of 100 ul/well (2,500 cells/well). Cells were allowed to adhere to plates for 24 h at 37° C. and 5% CO2). Compounds were then added to the wells using an […] serial dilution scheme (over 9 dilutions, generally ranging from 30 μM-30 pM), and the cells were incubated for an additional 120 hours. After 120 h, 90 ul of Cell-Titer Glo reagent (Promega #G7572) was added, and the plates were read using a luminescence counter (e.g., BioTek Synergy HTX at 100 ms read time).
row,Compound,EC50 [nM]
1,"CCCCCCCCCCCCCCCCCCC(=O)O[C@@H]1[C@@H](COP2(=O)OCc3ccccc3O2)O[C@@H](n2ccc(N)nc2=O)C1(F)F (stereo partly drawn) [Compound 16, (2R,3R,5R)-5-(4-amino-2-oxopyrimidin-1(2H)-yl)-4,4-difluoro-2-(((2-oxido-4H-benzo[d][1,3,2]dioxaphosphinin-2-yl)oxy)methyl)tetrahydrofuran-3-yl Nonadecanoate]",< 1
2,CCCCCCCCCCCCC(=O)O[C@@H]1[C@@H](COP(=O)(OCOC(=O)CC(C)(C)C)OCOC(=O)CC(C)(C)C)O[C@@H](n2ccc(N)nc2=O)C1(F)F [Compound 17],1 to 10
3,CCCCCCCCCCCCCCC(=O)OC1[C@@H](COP(=O)(OCOC(=O)CC(C)(C)C)OCOC(=O)CC(C)(C)C)O[C@@H](n2ccc(N)nc2=O)C1(F)F (stereo partly shown) [Compound 27],< 1
4,"Nc1ccn([C@@H]2O[C@H](CO)[C@@H](O)C2(F)F)c(=O)n1 [Gemcitabine Hydrochloride, reference compound]",1 to 10
